Assays:
Format in all cases: in vivo
[1] = system: Echinochloa crus-galli; experiment: Herbicidal effect test by treatment of rice paddy soil (Test Example 1); conditions: 120 g/10 a, treated immediately after seeding, 14 days after treatment
Description: (§1) Wagner pots with an area of 1/10000 ares were filled with a paddy soil, and a compound fertilizer (N:P:K=17:17:17) was mixed after water was added, followed by soil puddling. Then, Echinochloa crus-galli, broad leaf weeds (Lindernia pyxidaria and Monochoria vaginalis) and Scirpus juncoides, 30 seeds each, were sown in a depth of 0 to 1 cm. Water was poured immediately after seeding, and the water depth was kept at about 3 cm. A subsequent management was conducted in a glass greenhouse. Immediately after that, emulsions prepared using the compounds in Table 3 below according to Formulation Example 5 were diluted with water, and a certain amount of the water-diluted agent solutions were dropped. A converted amount of the applied active ingredient corresponded to 120 g per 10 ares.
(§2) This test was conducted in a double system per one agent solution concentration area, and the herbicidal rates (%) were determined by the following equation (Math. 1) 14 days after the treatment with the agents.
(§3) Herbicidal Rate (%)={1−(Average Dry Weight (g) of Plant of Treated Area)/(Average Dry Weight (g) of Plant of Untreated Area)}×100 [Math. 1]

[2] = system: Lindernia pyxidaria; experiment: as above; conditions: 120 g/10 a, treated immediately after seeding, 14 days after treatment
Description: as §1, §2, §3

[3] = system: Monochoria vaginalis; experiment: as above; conditions: 120 g/10 a, treated immediately after seeding, 14 days after treatment
Description: as §1, §2, §3

[4] = system: Scirpus juncoides; experiment: as above; conditions: 120 g/10 a, treated immediately after seeding, 14 days after treatment
Description: as §1, §2, §3

[5] = system: Echinochloa crus-galli; experiment: Herbicidal effect test by treatment during growing period in paddy rice cultivation (Test Example 2); conditions: 120 g/10 a, treated seven days after seeding, 14 days after treatment
From the text: as §3
as §1, with “after addition of water,” for “after water was added,”, “greenhouse. Emulsions” for “greenhouse. Immediately after that, emulsions”, “Table 4” for “Table 3”, “with water seven days after seeding,” for “with water,”, “ares. The test was conducted in a double system per one agent solution concentration area, and the herbicidal rates (%) were determined by the equation (Math. 1) 14 days after the treatment with the agents. In this regard, the compound numbers in Table 4 are the same as those in Table 1 and Table 2 above.” for “ares.”

[6] = system: Lindernia pyxidaria; experiment: as above; conditions: 120 g/10 a, treated seven days after seeding, 14 days after treatment
From the text: as §3
as §1, with “after addition of water,” for “after water was added,”, “greenhouse. Emulsions” for “greenhouse. Immediately after that, emulsions”, “Table 4” for “Table 3”, “with water seven days after seeding,” for “with water,”, “ares. The test was conducted in a double system per one agent solution concentration area, and the herbicidal rates (%) were determined by the equation (Math. 1) 14 days after the treatment with the agents. In this regard, the compound numbers in Table 4 are the same as those in Table 1 and Table 2 above.” for “ares.”

[7] = system: Monochoria vaginalis; experiment: as above; conditions: 120 g/10 a, treated seven days after seeding, 14 days after treatment
From the text: as §3
as §1, with “after addition of water,” for “after water was added,”, “greenhouse. Emulsions” for “greenhouse. Immediately after that, emulsions”, “Table 4” for “Table 3”, “with water seven days after seeding,” for “with water,”, “ares. The test was conducted in a double system per one agent solution concentration area, and the herbicidal rates (%) were determined by the equation (Math. 1) 14 days after the treatment with the agents. In this regard, the compound numbers in Table 4 are the same as those in Table 1 and Table 2 above.” for “ares.”

[8] = system: Scirpus juncoides; experiment: as above; conditions: 120 g/10 a, treated seven days after seeding, 14 days after treatment
From the text: as §3
as §1, with “after addition of water,” for “after water was added,”, “greenhouse. Emulsions” for “greenhouse. Immediately after that, emulsions”, “Table 4” for “Table 3”, “with water seven days after seeding,” for “with water,”, “ares. The test was conducted in a double system per one agent solution concentration area, and the herbicidal rates (%) were determined by the equation (Math. 1) 14 days after the treatment with the agents. In this regard, the compound numbers in Table 4 are the same as those in Table 1 and Table 2 above.” for “ares.”

[9] = system: Amaranthus viridis; experiment: Herbicidal effect test by treatment of dry field farming soil (Test Example 3); conditions: 120 g/10 a, sprayed one day after seeding, 14 days after treatment
From the text: (§4) Herbicidal Rate (%)={1−(Average Dry Weight (g) of Plant of Treated Area)/(Average Dry Weight (g) of Plant of Untreated Area)}×100 [Math. 1] Pots with a size of 36 cm^2 were filled with a dry field farming soil (alluvium). The soil of the top layer of 1 cm and seeds of weeds, namely southern crabgrass, Echinochloa crus-galli, Chenopodium album and Amaranthus viridis, 20 seeds each, were evenly mixed, and the top layer was gently pressed. Emulsions prepared using the compounds in Table 5 below according to Formulation Example 5 were diluted with water one day after seeding, and the water-diluted agent solutions were sprayed to the soil surfaces at a ratio of 100 liters per 10 ares. A converted amount of the applied active ingredient corresponded to 120 g per 10 ares. The herbicidal effects were evaluated by the same standard as that in Test Example 1, 14 days after the treatment with the agents. In this regard, the compound numbers in Table 5 are the same as those in Table 1 and Table 2 above.

[10] = system: Chenopodium album; experiment: as above; conditions: 120 g/10 a, sprayed one day after seeding, 14 days after treatment
From the text: as §4

[11] = system: Echinochloa crus-galli; experiment: as above; conditions: 120 g/10 a, sprayed one day after seeding, 14 days after treatment
From the text: as §4

[12] = system: southern crabgrass; experiment: as above; conditions: 120 g/10 a, sprayed one day after seeding, 14 days after treatment
From the text: as §4

[13] = system: Amaranthus viridis; experiment: Herbicidal effect test by treatment of stem and leaf in dry field farming (Test Example 4); conditions: 120 g/10 a, stem and leaf treatment seven days after seeding, 14 days after treatment
From the text: as §4, with “Table 6” for “Table 5”, “water seven days” for “water one day”

[14] = system: Chenopodium album; experiment: as above; conditions: 120 g/10 a, stem and leaf treatment seven days after seeding, 14 days after treatment
From the text: as §4, with “Table 6” for “Table 5”, “water seven days” for “water one day”

[15] = system: Echinochloa crus-galli; experiment: as above; conditions: 120 g/10 a, stem and leaf treatment seven days after seeding, 14 days after treatment
From the text: as §4, with “Table 6” for “Table 5”, “water seven days” for “water one day”

[16] = system: southern crabgrass; experiment: as above; conditions: 120 g/10 a, stem and leaf treatment seven days after seeding, 14 days after treatment
From the text: as §4, with “Table 6” for “Table 5”, “water seven days” for “water one day”

COC1CCCC1n1oc(=O)c(Cc2ccccc2N(C(=O)c2ccc(Cl)cc2)S(=O)(=O)C(F)(F)F)c1C (stereo not shown) [Compound 147]
Herbicidal rate, Echinochloa crus-galli [1]: 100%
Herbicidal rate, Lindernia pyxidaria [2]: 100%
Herbicidal rate, Monochoria vaginalis [3]: 100%
Herbicidal rate, Scirpus juncoides [4]: 100%
Herbicidal rate, Echinochloa crus-galli [5]: 100%
Herbicidal rate, Lindernia pyxidaria [6]: 80%
Herbicidal rate, Monochoria vaginalis [7]: 90%
Herbicidal rate, Scirpus juncoides [8]: 90%
Herbicidal rate, Amaranthus viridis [9]: 60%
Herbicidal rate, Chenopodium album [10]: 60%
Herbicidal rate, Echinochloa crus-galli [11]: 90%
Herbicidal rate, southern crabgrass [12]: 90%
Herbicidal rate, Amaranthus viridis [13]: 90%
Herbicidal rate, Chenopodium album [14]: 90%
Herbicidal rate, Echinochloa crus-galli [15]: 90%
Herbicidal rate, southern crabgrass [16]: 80%

COC1CCCC1n1oc(=O)c(Cc2ccccc2N(C(=O)CC(C)C)S(=O)(=O)C(F)(F)F)c1C (stereo not shown) [Compound 119]
Herbicidal rate, Echinochloa crus-galli [1]: 100%
Herbicidal rate, Lindernia pyxidaria [2]: 100%
Herbicidal rate, Monochoria vaginalis [3]: 100%
Herbicidal rate, Scirpus juncoides [4]: 100%
Herbicidal rate, Echinochloa crus-galli [5]: 100%
Herbicidal rate, Lindernia pyxidaria [6]: 80%
Herbicidal rate, Monochoria vaginalis [7]: 90%
Herbicidal rate, Scirpus juncoides [8]: 90%
Herbicidal rate, Amaranthus viridis [9]: 60%
Herbicidal rate, Chenopodium album [10]: 60%
Herbicidal rate, Echinochloa crus-galli [11]: 90%
Herbicidal rate, southern crabgrass [12]: 90%
Herbicidal rate, Amaranthus viridis [13]: 90%
Herbicidal rate, Chenopodium album [14]: 90%
Herbicidal rate, Echinochloa crus-galli [15]: 90%
Herbicidal rate, southern crabgrass [16]: 80%

COC1CCCCC1n1oc(=O)c(Cc2ccccc2N(C(=O)Oc2ccccc2)S(=O)(=O)C(F)(F)F)c1C (single isomer, unassigned) [Compound 288]
Herbicidal rate, Echinochloa crus-galli [1]: 100%
Herbicidal rate, Lindernia pyxidaria [2]: 100%
Herbicidal rate, Monochoria vaginalis [3]: 100%
Herbicidal rate, Scirpus juncoides [4]: 100%
Herbicidal rate, Echinochloa crus-galli [5]: 100%
Herbicidal rate, Lindernia pyxidaria [6]: 90%
Herbicidal rate, Monochoria vaginalis [7]: 90%
Herbicidal rate, Scirpus juncoides [8]: 90%
Herbicidal rate, Amaranthus viridis [9]: 40%
Herbicidal rate, Chenopodium album [10]: 60%
Herbicidal rate, Echinochloa crus-galli [11]: 90%
Herbicidal rate, southern crabgrass [12]: 90%
Herbicidal rate, Amaranthus viridis [13]: 90%
Herbicidal rate, Chenopodium album [14]: 90%
Herbicidal rate, Echinochloa crus-galli [15]: 90%
Herbicidal rate, southern crabgrass [16]: 90%

COC1CCCC1n1oc(=O)c(Cc2ccccc2N(C(=O)OCC(C)C)S(=O)(=O)C(F)(F)F)c1C (stereo not shown) [Compound 248]
Herbicidal rate, Echinochloa crus-galli [1]: 100%
Herbicidal rate, Lindernia pyxidaria [2]: 100%
Herbicidal rate, Monochoria vaginalis [3]: 100%
Herbicidal rate, Scirpus juncoides [4]: 100%
Herbicidal rate, Echinochloa crus-galli [5]: 100%
Herbicidal rate, Lindernia pyxidaria [6]: 80%
Herbicidal rate, Monochoria vaginalis [7]: 90%
Herbicidal rate, Scirpus juncoides [8]: 90%
Herbicidal rate, Amaranthus viridis [9]: 60%
Herbicidal rate, Chenopodium album [10]: 60%
Herbicidal rate, Echinochloa crus-galli [11]: 90%
Herbicidal rate, southern crabgrass [12]: 90%
Herbicidal rate, Amaranthus viridis [13]: 90%
Herbicidal rate, Chenopodium album [14]: 90%
Herbicidal rate, Echinochloa crus-galli [15]: 90%
Herbicidal rate, southern crabgrass [16]: 80%

COC1CCCC1n1oc(=O)c(Cc2ccccc2NS(=O)(=O)C(F)(F)F)c1C (stereo not shown) [Compound 59, 1,1,1-trifluoro-N-[2-[[(2-methoxycyclopentyl)-3-methyl-5-oxoisoxazol-4-yl]methyl]phenyl]methanesulfonamide]
Herbicidal rate, Echinochloa crus-galli [1]: 100%
Herbicidal rate, Lindernia pyxidaria [2]: 100%
Herbicidal rate, Monochoria vaginalis [3]: 100%
Herbicidal rate, Scirpus juncoides [4]: 100%
Herbicidal rate, Echinochloa crus-galli [5]: 100%
Herbicidal rate, Lindernia pyxidaria [6]: 80%
Herbicidal rate, Monochoria vaginalis [7]: 90%
Herbicidal rate, Scirpus juncoides [8]: 90%
Herbicidal rate, Amaranthus viridis [9]: 60%
Herbicidal rate, Chenopodium album [10]: 60%
Herbicidal rate, Echinochloa crus-galli [11]: 90%
Herbicidal rate, southern crabgrass [12]: 90%
Herbicidal rate, Amaranthus viridis [13]: 90%
Herbicidal rate, Chenopodium album [14]: 90%
Herbicidal rate, Echinochloa crus-galli [15]: 90%
Herbicidal rate, southern crabgrass [16]: 90%

COC1CCCCC1n1oc(=O)c(Cc2ccccc2NS(=O)(=O)C(F)(F)F)c1C (stereo not shown) [Compound 62, 1,1,1-trifluoro-N-[2-[[(2-methoxycyclohexyl)-3-methyl-5-oxoisoxazol-4-yl]methyl]phenyl]methanesulfonamide]
Herbicidal rate, Echinochloa crus-galli [1]: 100%
Herbicidal rate, Lindernia pyxidaria [2]: 100%
Herbicidal rate, Monochoria vaginalis [3]: 100%
Herbicidal rate, Scirpus juncoides [4]: 100%
Herbicidal rate, Echinochloa crus-galli [5]: 100%
Herbicidal rate, Lindernia pyxidaria [6]: 80%
Herbicidal rate, Monochoria vaginalis [7]: 90%
Herbicidal rate, Scirpus juncoides [8]: 90%
Herbicidal rate, Amaranthus viridis [9]: 60%
Herbicidal rate, Chenopodium album [10]: 60%
Herbicidal rate, Echinochloa crus-galli [11]: 90%
Herbicidal rate, southern crabgrass [12]: 90%
Herbicidal rate, Amaranthus viridis [13]: 90%
Herbicidal rate, Chenopodium album [14]: 90%
Herbicidal rate, Echinochloa crus-galli [15]: 90%
Herbicidal rate, southern crabgrass [16]: 90%

COC1CCCC1n1oc(=O)c(Cc2ccccc2N(C(=O)Oc2ccccc2)S(=O)(=O)C(F)(F)F)c1C (stereo not shown) [Compound 286]
Herbicidal rate, Echinochloa crus-galli [1]: 100%
Herbicidal rate, Lindernia pyxidaria [2]: 100%
Herbicidal rate, Monochoria vaginalis [3]: 100%
Herbicidal rate, Scirpus juncoides [4]: 100%
Herbicidal rate, Echinochloa crus-galli [5]: 100%
Herbicidal rate, Lindernia pyxidaria [6]: 80%
Herbicidal rate, Monochoria vaginalis [7]: 90%
Herbicidal rate, Scirpus juncoides [8]: 90%
Herbicidal rate, Amaranthus viridis [9]: 60%
Herbicidal rate, Chenopodium album [10]: 60%
Herbicidal rate, Echinochloa crus-galli [11]: 90%
Herbicidal rate, southern crabgrass [12]: 90%
Herbicidal rate, Amaranthus viridis [13]: 90%
Herbicidal rate, Chenopodium album [14]: 90%
Herbicidal rate, Echinochloa crus-galli [15]: 90%
Herbicidal rate, southern crabgrass [16]: 80%
